As a reminder, the Kd is the equilibrium constant for the complex coming apart. A low value points to tighter binding.

Values joined by “and” are separate entries in the source; they are usually repeats but may differ in a detail not shown here. Equal values may be shown once. Where no end group is shown, it is not given here.

One assay concerns Total mGluR. Kind of assay: L-[3H]glutamate radioligand binding in intact cortical neurons. Also noted: species or system rat. The note with it: for Total mGluR Bmax: L-[3H]Glutamate saturation binding. As for the experimental part:
Metabotropic glutamate receptors were determined using the radioligand L-[^3H]glutamate, as described previously. Radioligand binding assays using intact cells were performed in 24-well plates. Briefly, cells were washed with serum-free DMEM buffered with 20 mM HEPES pH 7.4 and incubated for 60 min at 37 °C in a final volume of 250 µL, in the presence of 100 μM AMPA, 100 μM NMDA, and 100 μM kainate, to block glutamate binding to these receptor types; 10 μM of the glutamate uptake inhibitor D,L-threo-β-hydroxyaspartic acid; and increasing concentrations of L-[^3H] glutamate (200 nM to 1.2 µM). Non-labeled L-Glutamate in a concentration of 10^5 times higher than the radioligand was used to determine non-specific binding. After incubation, cells were washed with 500 µL of ice-cold buffer and disrupted with 0.2% SDS. Well contents were then transferred to vials and a scintillation liquid mixture was added to measure radioactivity. At least two wells from each plate were reserved for protein concentration measurement.

For assay [1], the system named is Group I mGluR/PLC signalling pathway. In words: Phospholipase C activity (IP3 accumulation), basal and DHPG-stimulated. It counts as cell-based, rat. As for the experimental part: This method was previously reported and is divided into two well-defined steps: IP3 accumulation: culture medium was discharged, and cells were washed twice with DMEM containing 20 mM HEPES, pH 7.4. After 20 min at 37 °C, different ligands were added to cells for 10 min at 37 °C to analyse their effect on PLC activity in a final reaction volume of 300 μL. The enzymatic reaction was stopped and cells lysed by adding 50 μL 2.8 M perchloric acid and placing plates on ice for 30 min. The medium was neutralized with 70 μ[…] Tris-HCl, 2 M KOH, and 60 mM EGTA, transferred to Eppendorf tubes and centrifuged at 12,000× g for 10 min. The supernatant was then collected to determine the IP3 level. IP3 level determination: IP3 levels in cells were determined as previously reported by Palmer and modified by […] [100]. Incubation of [^3H]IP3 (0.2 pmol; 3000-5000 cpm) in assay buffer (100 mM Tris-HCl, 4 mM EDTA, 4 mM EGTA, 4 mg/mL BSA, pH 9.0), binding protein (500-600 μg), and 25-50 μL of supernatant obtained from IP3 accumulation assay was carried out. Samples were incubated at 4 °C for 60 min and centrifuged at 12,000× g for 10 min. Pellets were suspended in 100 μL 0.2% SDS and transferred to scintillation vials to measure radioactivity. A standard curve was made with known [^3H]IP3 concentrations (0.25-10 μM). Nonspecific binding was determined in the presence of 10 μM unlabeled IP3. Binding protein was obtained from bovine suprarenal capsules according to Palmer's protocol.

In assay [2] the test system is Caspase 3 (Casp3) gene expression. Kind of assay: Caspase 3 gene expression by real-time RT-PCR. It counts as cell-based, rat. The settings on record: 25 µM. As for the experimental part:
(§1) Total RNA was extracted using an ABI 6100 Nucleic Acid PrepStation according to the manufacturer’s protocol (Applied Biosystems Inc., Foster City, CA, USA). Total RNA from cells was isolated and stored at −80 °C. The quality of isolated RNA was estimated by the ratio A260/A280 and was in the range of 1.9–2.1. RNA integrity was evaluated by agarose gel electrophoresis according to MIQE guidelines using the “bleach gel” method. RNA concentrations were determined from the A260. One microgram of total RNA was reverse transcribed using Applied Biosystems High-Capacity cDNA Archive Kit.
(§2) To assess relative gene expression in neurons, quantitative real-time RT-PCR analysis was performed with an Applied Biosystems Prism 7500 Fast Sequence Detection System using TaqMan® universal PCR master mix according to the manufacturer’s specifications. […] Levels of RNA expression were determined using the 7500 Fast System SDS software version 1.3.1 (Applied Biosystems) according to the 2^−ΔΔCt method. […] The results from three independent repeat assays, performed in different plates each using different cDNA’s from the cultures analyzed, were averaged to produce a single mean quantity value for each mRNA.

The subject of assay [3] is A2BR (ADORA2B) gene expression. Kind of assay: A2BR gene expression by real-time PCR. It counts as cell-based, rat. The note with it: 25 µM, 24 or 48 h. The procedure:
as §1, §2
Background: Quantitative PCR measures a nucleic acid by following its amplification.

The next assay has as its system CREB gene expression. In words: CREB gene expression by real-time PCR. It counts as cell-based, rat. The settings on record: 25 µM, 24 or 48 h. As for the experimental part: as §1, §2
[4] abbreviates: neurons exposed to 25 µM for 24 h.
Where [5] appears, read: neurons exposed to 25 µM for 48 h.

In the case of GSNKGAIIGLM [Aβ25-35], the “mGluR affinity (1/KD), % of the control value” with Total mGluR (25 µM, 24 or 48 h) is around 50%. The “Total mGluR density (Bmax) increase over control value” in the assay on Total mGluR (25 µM, 24 h) is reported as 61%; with Total mGluR (25 µM, 48 h), 99%. The figures for the Kd at Total mGluR (setting [4]) and at Total mGluR (setting [5]) were 1610 ± 423 nM and 1520 ± 163 nM, respectively. Moreover, the “Total mGluR Bmax” value with Total mGluR (setting [4]) is given as 952 ± 9 pmol/mg prot; with Total mGluR (setting [5]) it was 1178 ± 93 pmol/mg prot. The “decrease in DHPG-stimulated PLC activity” value in assay [1] (25 µM, 24 h, 30 µM DHPG for 10 min) amounted to 13%. Also, the “basal PLC activity” value in assay [1] (neurons exposed to 25 µM for 24 h, unstimulated, absence of DHPG) was 17.61 ± 4.85 pmol/mg/min and 17.6 ± 4.8 pmol/mg/min. For the same sequence, the “caspase 3 gene expression” value in assay [2] (24 h) and in assay [2] (48 h) was “significant increase” in each case. In addition, in assay [3], the A2BR gene expression result is given as “significantly increased”. Further, in the assay with CREB gene expression, the CREB gene expression entry is on record as “decrease”.

Source of the values: PMC8234864, “Early Effects of the Soluble Amyloid β25-35 Peptide in Rat Cortical Neurons: Modulation of Signal Transduction Mediated by Adenosine and Group I Metabotropic Glutamate Receptors” (International Journal of Molecular Sciences, 2021).
